{"source": "the supplement of paper PMC10307832", "experiment_in_all_cases": "relative viability (nuclei count vs DMSO), 5 days (fraction); higher = more cells survive", "key": {"[1]": {"compound": "CS(=O)(=O)c1ccc(-c2cnc(N)c(C(=O)Nc3ccccc3)n2)cc1 [VE-821] + Cc1cc(Nc2cc(N3CCN(C)CC3)nc(Sc3ccc(NC(=O)C4CC4)cc3)n2)n[nH]1 [Tozasertib] (partner 0.1 µM)", "summary_of_the_method": "(§1)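 Values are medians from duplicate plates. Each reflects relative viability, defined as the nuclei count of treated wells over that of vehicle wells. Lung cancer cell lines in 1536-well plates were pin-tool dosed one day after seeding with one drug alone or with a fixed anchor-drug dose plus five library-drug doses (not always all listed) in √10 steps, then fixed, stained and imaged at 4× after 5 days.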"}, "[2]": {"compound": "CS(=O)(=O)c1ccc(C(=O)Nc2ccc(Cl)c(-c3ccccn3)c2)c(Cl)c1 [Vismodegib] + CC(=O)c1c(C)c2cnc(Nc3ccc(N4CCNCC4)cn3)nc2n(C2CCCC2)c1=O [Palbociclib] (partner 0.5 µM)", "summary_of_the_method": "as §1"}, "[3]": {"compound": "CS(=O)(=O)c1ccc(C(=O)Nc2ccc(Cl)c(-c3ccccn3)c2)c(Cl)c1 [Vismodegib] + COc1cc2c(Oc3ccc(NC(=O)C4(C(=O)Nc5ccc(F)cc5)CC4)cc3F)ccnc2cc1OCCCN1CCOCC1 [Foretinib] (partner 0.25 µM)", "summary_of_the_method": "as §1"}, "[4]": {"compound": "CS(=O)(=O)c1ccc(C(=O)Nc2ccc(Cl)c(-c3ccccn3)c2)c(Cl)c1 [Vismodegib] + Nc1nc2[nH]cc(CCc3ccc(C(=O)N[C@@H](CCC(=O)O)C(=O)O)cc3)c2c(=O)[nH]1 [Pemetrexed] (partner 0.2 µM)", "summary_of_the_method": "as §1"}}}
{"cell line": "UMC-11", "values": [{"measurement": "relative viability", "setting": "[1]; first compound 0.08 µM", "value": 0.203}, {"measurement": "relative viability", "setting": "[1]; first compound 0.253 µM", "value": 0.195}, {"measurement": "relative viability", "setting": "[1]; first compound 0.8 µM", "value": 0.223}, {"measurement": "relative viability", "setting": "[1]; first compound 2.53 µM", "value": 0.2}, {"measurement": "relative viability", "setting": "[1]; first compound 8 µM", "value": 0.203}, {"measurement": "relative viability", "setting": "[2]; first compound 0.08 µM", "value": 0.343}, {"measurement": "relative viability", "setting": "[2]; first compound 0.253 µM", "value": 0.346}, {"measurement": "relative viability", "setting": "[2]; first compound 0.8 µM", "value": 0.298}, {"measurement": "relative viability", "setting": "[2]; first compound 2.53 µM", "value": 0.351}, {"measurement": "relative viability", "setting": "[2]; first compound 8 µM", "value": 0.344}, {"measurement": "relative viability", "setting": "[3]; first compound 0.08 µM", "value": 0.996}, {"measurement": "relative viability", "setting": "[3]; first compound 0.253 µM", "value": 0.961}, {"measurement": "relative viability", "setting": "[3]; first compound 0.8 µM", "value": 1.07}, {"measurement": "relative viability", "setting": "[3]; first compound 2.53 µM", "value": 0.923}, {"measurement": "relative viability", "setting": "[3]; first compound 8 µM", "value": 1.04}, {"measurement": "relative viability", "setting": "[4]; first compound 0.08 µM", "value": 0.61}, {"measurement": "relative viability", "setting": "[4]; first compound 0.253 µM", "value": 0.807}, {"measurement": "relative viability", "setting": "[4]; first compound 0.8 µM", "value": 0.768}, {"measurement": "relative viability", "setting": "[4]; first compound 2.53 µM", "value": 0.739}, {"measurement": "relative viability", "setting": "[4]; first compound 8 µM", "value": 0.868}]}
